Laboratory results as given in ChEMBL document CHEMBL1201862, “PubChem BioAssay data set” (2004).
Active and inactive are the calls of the source.

Tests used:
[1] = target: T1, Fatty acid synthase (Homo sapiens, UniProt P49327); assay: FAS thioesterase domain inhibitors, dose response, biochemical, endpoint fluorescence intensity, uHTS hits (AID 624327); format: functional;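 further: fluorescence from hydrolysis of an O-methyl fluorescein acyl ester substrate by the enzyme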
[2] = target: T1, Fatty acid synthase; assay: FAS thioesterase domain inhibitors, dose response, biochemical, kinetic fluorescence intensity (AID 624326); format: functional;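 further: rate of fluorescence rise from hydrolysis of a fluorogenic O-methyl fluorescein ester substrate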
[3] = target: T2, Short transient receptor potential channel 4 (Mus musculus, UniProt Q9QUQ5); assay: mouse TRPC4 channel inhibitors, dose response, cell-based, HEK293 TRPC4/mu-opioid, Fluo-4 calcium (AID 434942); format: functional;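 further: potency of inhibitors blocking the TRPC4 calcium response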
T2 sequence (Q9QUQ5 whole entry): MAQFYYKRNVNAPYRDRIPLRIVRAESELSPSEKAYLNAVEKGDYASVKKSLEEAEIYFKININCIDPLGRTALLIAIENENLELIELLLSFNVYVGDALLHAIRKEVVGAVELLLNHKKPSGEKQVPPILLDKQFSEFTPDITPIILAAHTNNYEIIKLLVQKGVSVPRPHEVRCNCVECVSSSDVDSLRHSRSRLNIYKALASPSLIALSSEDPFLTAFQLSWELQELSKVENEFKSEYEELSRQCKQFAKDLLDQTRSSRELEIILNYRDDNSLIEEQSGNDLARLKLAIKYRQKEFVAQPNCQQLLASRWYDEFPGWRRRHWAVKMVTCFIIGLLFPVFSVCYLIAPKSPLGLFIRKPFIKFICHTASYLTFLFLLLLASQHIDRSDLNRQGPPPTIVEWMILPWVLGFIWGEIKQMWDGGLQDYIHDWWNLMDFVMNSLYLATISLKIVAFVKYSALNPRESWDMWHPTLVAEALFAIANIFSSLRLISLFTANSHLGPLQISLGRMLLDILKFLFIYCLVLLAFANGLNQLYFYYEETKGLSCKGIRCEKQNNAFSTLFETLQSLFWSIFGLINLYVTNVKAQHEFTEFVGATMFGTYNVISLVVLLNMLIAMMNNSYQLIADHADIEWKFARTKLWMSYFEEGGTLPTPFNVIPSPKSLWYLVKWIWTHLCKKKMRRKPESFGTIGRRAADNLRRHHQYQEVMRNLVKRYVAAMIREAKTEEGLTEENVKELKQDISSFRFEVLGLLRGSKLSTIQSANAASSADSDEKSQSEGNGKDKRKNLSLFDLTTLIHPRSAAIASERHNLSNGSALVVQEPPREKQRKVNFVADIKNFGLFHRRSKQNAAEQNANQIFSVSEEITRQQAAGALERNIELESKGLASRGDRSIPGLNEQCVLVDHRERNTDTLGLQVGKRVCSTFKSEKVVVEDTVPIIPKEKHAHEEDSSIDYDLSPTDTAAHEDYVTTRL

[4] = microbe, parasite or virus in culture; format: functional; details: Mycobacterium tuberculosis
[5] = target: T3, RNA-binding protein pos-1 (Caenorhabditis elegans, UniProt G5EF15); assay: inhibitors of POS-1/mex-3 RNA binding, dose response, biochemical, fluorescence polarization (AID 1964);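 further: purified POS-1 fused to maltose binding protein made in E. coli; potency of compounds blocking POS-1 binding to fluorescent RNA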
T3 sequence (G5EF15 whole entry): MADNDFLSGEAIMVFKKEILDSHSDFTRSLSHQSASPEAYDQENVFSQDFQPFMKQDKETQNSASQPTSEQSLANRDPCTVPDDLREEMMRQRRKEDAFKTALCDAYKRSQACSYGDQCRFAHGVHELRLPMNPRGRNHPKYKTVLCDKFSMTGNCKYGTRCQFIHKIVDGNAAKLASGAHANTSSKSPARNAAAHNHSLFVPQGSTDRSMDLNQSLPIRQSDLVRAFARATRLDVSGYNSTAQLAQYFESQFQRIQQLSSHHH

[6] = target: T4, Zinc finger protein mex-5 (Caenorhabditis elegans, UniProt Q9XUB2); assay: MEX-5/TCR-2 RNA interaction inhibitors, dose response, biochemical, C. elegans, fluorescence polarization (AID 1960)
T4 sequence (Q9XUB2 whole entry): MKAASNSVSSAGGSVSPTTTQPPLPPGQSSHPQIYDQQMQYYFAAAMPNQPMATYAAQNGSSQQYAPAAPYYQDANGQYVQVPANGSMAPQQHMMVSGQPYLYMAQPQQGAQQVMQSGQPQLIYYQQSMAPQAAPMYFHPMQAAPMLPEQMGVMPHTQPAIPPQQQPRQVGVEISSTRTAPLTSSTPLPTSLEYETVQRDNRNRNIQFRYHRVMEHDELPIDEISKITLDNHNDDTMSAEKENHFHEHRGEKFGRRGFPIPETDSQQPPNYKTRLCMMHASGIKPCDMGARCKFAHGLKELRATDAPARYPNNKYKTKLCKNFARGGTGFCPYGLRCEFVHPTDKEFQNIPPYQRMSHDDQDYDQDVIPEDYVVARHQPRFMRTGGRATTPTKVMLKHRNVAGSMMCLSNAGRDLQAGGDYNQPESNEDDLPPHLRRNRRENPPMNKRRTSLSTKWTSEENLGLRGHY

[7] = inhibitors of clade B AD8 Env fusion, dose response, cell-based, cherry-pick (AID 652062); format: functional;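 further: luciferase signal from cell-cell fusion driven by HIV-1 clade B AD8 Env; potency is for inhibitors of fusion seen as a drop in luminescence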
[8] = inhibitors of HIV Env-driven cell fusion, dose response, cherry-pick (AID 652057); format: functional, cell-based
[9] = off-target signal loss in HeLa-CEM21 co-culture – HeLa F-luc CTL cells, cherry-picked, counter-screen for HIV-1 Env fusion inhibitor project, dose response (AID 652040); format: functional, cell-based;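 further: potency for signal decrease marking cytotoxic or nonspecific inhibition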
[10] = ZM109 Env clade C HIV-1 fusion inhibitors, dose response, HeLa effector, CEM target cells, luciferase, cherry-pick (AID 652058); format: functional, cell-based
[11] = inhibitors of firefly luciferase expression or activity, dose response, H4 neuroglioma cells, luminescence (AID 1990); format: functional, cell-based
[12] = inhibitors of SNCA 5'UTR-driven reporter translation, confirmation, H4 neuroglioma cells, luminescence (AID 1988); format: functional, cell-based
[13] = Luminescence Cell-Based Dose Response HTS to Identify Inhibitors of 5'UTR Stem-Loop Driven Prion Protein mRNA Translation in H4 Neuroglioblastoma Cells. [Related pubchem assays: 1827 (Project Summary), 1813 (Primary HTS)]; format: functional
[14] = target: Induced myeloid leukemia cell differentiation protein Mcl-1 (Homo sapiens, UniProt Q07820); format: functional
[15] = Luminescence Cell-Based Dose Confirmation HTS to Identify Inhibitors of Platelet Dense Granule Release. [Related pubchem assays: 1663 (Primary HTS), 1678 (Summary of Project)]; format: functional
[16] = target: Luciferin 4-monooxygenase (Photinus pyralis, UniProt P08659); assay: firefly luciferase enzyme inhibitors, dose response, biochemical, luminescence (AID 1891)
[17] = A549 cell cytotoxicity, dose response, cytotoxicity control, plate reader, cherry-pick, antagonist series (AID 743412); format: functional, cell-based
[18] = inhibitors of intracellular T. cruzi replication, confirmation, NIH3T3 host cells, beta-gal luminescence (AID 2044); format: functional, cell-based;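 further: intracellular parasites grown in NIH/3T3 mouse fibroblasts as host cells; luminescent beta-galactosidase reporter signal from transgenic T. cruzi replicating inside host cells; inhibitors lower the luminescence signal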
[19] = growth suppression of PTEN-null colon cells, dose response, cell-based, HCT116 PTEN knockout (AID 1047); format: functional;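 further: HCT116 colon tumor cells with PTEN knocked out; cells exposed to compound for 60 hours before readout; potency for loss of cell viability measured by luminescence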
[20] = cytotoxicity toward NIH3T3 fibroblasts, dose response, counter-screen, cell-based, ATP luminescence, mouse fibroblasts (AID 2010); format: functional;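 further: cells exposed to compound for about 90 hours before reading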
[21] = growth suppression of beta-catenin-knockout colon cells, dose response, cell-based, HCT116, human colon tumor (AID 1045); format: functional;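 further: HCT116 colon tumor cells with beta catenin knocked out; cells exposed to compound for 60 hours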
[22] = MC4R antagonists, dose response, counter-screen for LGR2 antagonist project, cell-based, plate reader, cherry pick (AID 743444); format: functional;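 further: transfected HEK 293 cells stimulated with alpha-MSH peptide; potency of inhibitors of the alpha-MSH evoked signal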

T1 sequence (P49327 whole entry, the tested form may be a part): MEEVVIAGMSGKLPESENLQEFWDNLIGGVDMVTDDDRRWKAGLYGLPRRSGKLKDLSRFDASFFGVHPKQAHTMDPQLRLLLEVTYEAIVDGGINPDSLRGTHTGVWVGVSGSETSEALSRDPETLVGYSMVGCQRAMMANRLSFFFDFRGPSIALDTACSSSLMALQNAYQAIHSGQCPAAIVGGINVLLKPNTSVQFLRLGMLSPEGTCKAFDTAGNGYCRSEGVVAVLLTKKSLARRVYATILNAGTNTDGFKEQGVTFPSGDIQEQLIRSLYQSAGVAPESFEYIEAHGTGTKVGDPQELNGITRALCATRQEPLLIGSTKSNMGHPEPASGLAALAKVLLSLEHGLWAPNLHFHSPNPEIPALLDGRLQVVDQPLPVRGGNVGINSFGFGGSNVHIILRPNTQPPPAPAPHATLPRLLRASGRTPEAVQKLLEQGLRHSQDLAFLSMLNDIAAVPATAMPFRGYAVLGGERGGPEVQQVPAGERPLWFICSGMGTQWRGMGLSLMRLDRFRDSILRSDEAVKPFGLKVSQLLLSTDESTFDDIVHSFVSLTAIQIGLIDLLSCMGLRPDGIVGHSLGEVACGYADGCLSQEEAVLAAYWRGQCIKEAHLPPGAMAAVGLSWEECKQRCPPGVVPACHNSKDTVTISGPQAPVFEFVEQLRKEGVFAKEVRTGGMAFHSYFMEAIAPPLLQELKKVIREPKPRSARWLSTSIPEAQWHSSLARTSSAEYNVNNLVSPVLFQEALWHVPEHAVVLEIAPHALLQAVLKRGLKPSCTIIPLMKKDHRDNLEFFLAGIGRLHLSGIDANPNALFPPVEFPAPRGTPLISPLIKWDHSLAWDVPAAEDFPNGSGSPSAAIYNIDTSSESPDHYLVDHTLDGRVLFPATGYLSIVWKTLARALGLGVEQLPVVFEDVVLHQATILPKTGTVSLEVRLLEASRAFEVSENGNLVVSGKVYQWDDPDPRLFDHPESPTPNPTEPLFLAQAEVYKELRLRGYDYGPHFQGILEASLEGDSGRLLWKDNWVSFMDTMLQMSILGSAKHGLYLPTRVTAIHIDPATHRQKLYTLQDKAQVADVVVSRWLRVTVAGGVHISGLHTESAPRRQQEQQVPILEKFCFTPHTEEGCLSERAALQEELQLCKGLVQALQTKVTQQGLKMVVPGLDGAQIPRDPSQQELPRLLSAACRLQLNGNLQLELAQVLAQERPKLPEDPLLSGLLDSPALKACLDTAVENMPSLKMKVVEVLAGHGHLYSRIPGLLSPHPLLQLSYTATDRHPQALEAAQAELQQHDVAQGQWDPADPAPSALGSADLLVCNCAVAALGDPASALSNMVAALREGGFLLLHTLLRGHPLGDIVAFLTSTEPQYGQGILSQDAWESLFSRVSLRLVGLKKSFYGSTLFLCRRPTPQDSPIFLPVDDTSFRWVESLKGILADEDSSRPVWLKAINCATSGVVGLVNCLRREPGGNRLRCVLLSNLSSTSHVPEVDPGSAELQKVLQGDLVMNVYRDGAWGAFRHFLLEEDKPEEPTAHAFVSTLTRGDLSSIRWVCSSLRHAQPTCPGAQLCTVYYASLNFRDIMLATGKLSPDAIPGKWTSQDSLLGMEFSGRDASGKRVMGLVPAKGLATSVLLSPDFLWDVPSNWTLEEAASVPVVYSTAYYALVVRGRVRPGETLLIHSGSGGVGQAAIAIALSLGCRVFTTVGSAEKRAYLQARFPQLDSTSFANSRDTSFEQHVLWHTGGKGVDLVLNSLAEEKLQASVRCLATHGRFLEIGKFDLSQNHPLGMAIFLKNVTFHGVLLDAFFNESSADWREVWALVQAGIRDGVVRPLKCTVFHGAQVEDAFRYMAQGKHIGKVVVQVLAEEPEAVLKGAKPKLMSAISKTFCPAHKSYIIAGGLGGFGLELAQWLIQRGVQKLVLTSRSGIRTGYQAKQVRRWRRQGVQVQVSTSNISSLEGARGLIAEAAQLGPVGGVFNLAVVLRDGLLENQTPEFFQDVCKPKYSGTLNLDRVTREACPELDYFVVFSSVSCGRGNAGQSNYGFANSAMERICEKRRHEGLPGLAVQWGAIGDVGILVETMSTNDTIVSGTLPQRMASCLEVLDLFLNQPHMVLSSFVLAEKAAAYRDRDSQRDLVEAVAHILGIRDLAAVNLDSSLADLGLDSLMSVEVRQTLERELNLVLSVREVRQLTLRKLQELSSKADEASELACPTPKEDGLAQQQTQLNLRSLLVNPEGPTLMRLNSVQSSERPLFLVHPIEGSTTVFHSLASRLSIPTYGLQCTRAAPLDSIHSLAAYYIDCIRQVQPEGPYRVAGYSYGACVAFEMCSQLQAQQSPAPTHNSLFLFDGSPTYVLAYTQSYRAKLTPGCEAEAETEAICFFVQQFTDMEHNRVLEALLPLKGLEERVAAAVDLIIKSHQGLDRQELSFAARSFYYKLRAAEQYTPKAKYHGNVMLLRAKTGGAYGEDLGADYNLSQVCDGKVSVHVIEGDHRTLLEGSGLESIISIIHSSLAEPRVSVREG
Sequence of Induced myeloid leukemia cell differentiation protein Mcl-1 (Q07820 whole entry): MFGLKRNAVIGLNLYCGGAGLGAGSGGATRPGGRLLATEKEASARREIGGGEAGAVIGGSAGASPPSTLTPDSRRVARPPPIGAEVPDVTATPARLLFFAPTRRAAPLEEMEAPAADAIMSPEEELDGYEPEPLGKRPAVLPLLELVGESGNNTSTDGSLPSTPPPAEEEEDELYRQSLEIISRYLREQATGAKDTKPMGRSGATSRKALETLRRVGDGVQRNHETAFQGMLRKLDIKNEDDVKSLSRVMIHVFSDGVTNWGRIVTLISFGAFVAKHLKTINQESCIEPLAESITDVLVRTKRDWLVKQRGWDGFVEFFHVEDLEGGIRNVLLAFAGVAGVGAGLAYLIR
Sequence of Luciferin 4-monooxygenase (P08659 whole entry): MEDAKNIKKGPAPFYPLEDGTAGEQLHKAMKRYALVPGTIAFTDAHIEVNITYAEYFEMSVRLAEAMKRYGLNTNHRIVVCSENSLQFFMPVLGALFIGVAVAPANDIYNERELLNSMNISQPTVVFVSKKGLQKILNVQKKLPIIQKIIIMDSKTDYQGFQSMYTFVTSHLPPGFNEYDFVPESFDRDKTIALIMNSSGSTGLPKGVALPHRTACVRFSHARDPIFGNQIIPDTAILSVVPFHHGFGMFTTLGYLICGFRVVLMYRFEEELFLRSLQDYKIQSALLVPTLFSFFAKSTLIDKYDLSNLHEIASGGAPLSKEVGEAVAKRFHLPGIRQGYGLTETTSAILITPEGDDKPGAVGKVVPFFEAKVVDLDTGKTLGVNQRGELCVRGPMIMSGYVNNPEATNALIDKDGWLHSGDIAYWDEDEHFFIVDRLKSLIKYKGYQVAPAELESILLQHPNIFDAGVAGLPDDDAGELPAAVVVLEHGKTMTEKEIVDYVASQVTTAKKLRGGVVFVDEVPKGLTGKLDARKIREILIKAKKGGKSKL

**Q.** With `N#CCCSc1nc(N2CCOCC2)c2c(c1C#N)CCCC2` as the compound, how does the IC50 [1] read?
**A.** The IC50 was 7.57 µM (active).

**Q.** What about the IC50 [2] of the same compound?
**A.** The IC50 was 5.49 µM (active).

**Q.** For `Cc1ccc(-n2nc(-c3cccs3)cc2C(=O)NCC2CCCO2)c(C)c1` (configuration not stated), which EC50 [3] is on record?
**A.** Its EC50 is 4.73 µM (active).

**Q.** With `CCCCc1ccc(NC(=O)CSC2=NN3CCCC(=O)N=C3S2)cc1` as the compound, how does the CC50 [4] read?
**A.** The CC50 was > 40 µM (active).

**Q.** And the EC50 [5]?
**A.** The EC50 was > 300 µM (not active).

**Q.** What about the EC50 [6] of the same compound?
**A.** The EC50 was > 300 µM (not active).

**Q.** For `CCN(CC)S(=O)(=O)c1ccc(N2CCCC2)c(NC(=O)Cc2cc(OC)c(OC)c(OC)c2)c1`, which AC50 [7] is on record?
**A.** Its AC50 is 7.04 µM (active).

**Q.** What about the AC50 [8] of the same compound?
**A.** Its AC50 is 3.42 µM (active).

**Q.** What about the AC50 [9] of the same compound?
**A.** Its AC50 is 6.7 µM (active).

**Q.** And the AC50 [10]?
**A.** Its AC50 is 5.2 µM (active).

**Q.** Which results are given for `Cc1ccc(Cn2nnnc2CN2CCC(c3nc4cc(Cl)ccc4[nH]3)CC2)cc1`?
**A.** EC50 [11]: 7.23 µM (active); AC50 [8]: 19.5 µM (active); CC50 [4]: 6.84 µM (active); EC50 [12]: 2.45 µM (active); EC50 [13]: 10.5 µM (active); AC50 [10]: 2.37 µM (active)

**Q.** For `CC(C1CC2CCC1C2)n1c(S)nnc1-c1cccs1` (configuration not stated), which EC50 [3] is on record?
**A.** Its EC50 is 2.66 µM (active).

**Q.** Which IC50 [14] does the source give for `COc1ccc2nc(Nc3sc4c(c3C(N)=O)CCCC4)sc2c1` here?
**A.** Its IC50 is 8.79 µM (active).

**Q.** What does the source list for `O=C(O)CC(NC(=O)CCC1CCCCC1)c1cc([N+](=O)[O-])ccc1Cl` (configuration not stated)?
**A.** IC50 [1]: 10.7 µM (active); IC50 [2]: 8.7 µM (active)

**Q.** What does the source list for `COc1ccc(Cl)cc1NC(=O)Nc1cnccn1`?
**A.** AC50 [7]: 14.2 µM (active); AC50 [8]: 3.57 µM (active); EC50 [15]: > 112 µM (not active); AC50 [9]: 2.19 µM (active); AC50 [10]: 37.9 µM (active); EC50 [16]: > 112 µM (not active)

**Q.** For `O=C(NCc1ccccc1)/C(=C\c1cccc([N+](=O)[O-])c1)NC(=O)c1ccco1`, which IC50 [1] is on record?
**A.** The IC50 was 5.46 µM (active).

**Q.** And the IC50 [2]?
**A.** The IC50 was 4.06 µM (active).

**Q.** For `CC(C)CCNC(=O)C(c1ccc(O)cc1)N(Cc1cccs1)C(=O)C1COc2ccccc2O1` (configuration not stated), which AC50 [17] is on record?
**A.** The AC50 was > 52 µM (inactive).

**Q.** What about the EC50 [18] of the same compound?
**A.** The EC50 was 1.58 µM (active).

**Q.** And the EC50 [19]?
**A.** Its EC50 is 19.5 µM (active).

**Q.** And the EC50 [20]?
**A.** Its EC50 is > 60 µM (inconclusive).

**Q.** What about the EC50 [21] of the same compound?
**A.** The EC50 was 21.4 µM (active).

**Q.** What about the AC50 [22] of the same compound?
**A.** Its AC50 is 35.3 µM (active).

**Q.** With `CCOCCCNCc1cc(Br)ccc1OCc1ccccc1` as the compound, how does the EC50 [3] read?
**A.** Its EC50 is 1.33 µM (active).

**Q.** What does the source list for `CNC(=S)N(Cc1ccc(OC)cc1)C1CC(=O)N(c2ccc(Cl)cc2)C1=O` (configuration not stated)?
**A.** IC50 [1]: 11 µM (active); IC50 [2]: 9.36 µM (active)
